Tests used:
[1] = Liquid; for mass density: 101 kPa, Vibrating tube method; for vapor or sublimation pressure: Ebulliometric method (Recirculating still)
[2] = refractive index (Na D-line) (dimensionless); conditions: 101.33 kPa, Liquid, Standard Abbe refractometry
[3] = xn = mol fraction of the nth substance listed; conditions: 101 kPa, Liquid, Vibrating tube method
[4] = refractive index (Na D-line) (dimensionless); xn = mol fraction of the nth substance listed; conditions: 101 kPa, Liquid, Standard Abbe refractometry

CCOC(C)=O [ethyl acetate]
Conditions | mass density, 298.15 K [kg/m3] | mass density, 303.15 K [kg/m3] | mass density, 308.15 K [kg/m3] | mass density, 313.15 K [kg/m3] | mass density, 318.16 K [kg/m3] | mass density, 323.15 K [kg/m3] | refractive index, 303.15 K | vapor or sublimation pressure, 349.8 K [kPa]
[1] | 894.9 | 888.76 | 882.58 | 876.34 | 870.06 | 863.73 | – | 101.3
[2] | – | – | – | – | – | – | 1.3672 | –

COC(C)=O [methyl ethanoate] + CCCC(=O)[O-].C[NH2+]CCO
x1 = 1
Conditions | mass density, 288.15 K [kg/m3] | mass density, 293.14 K [kg/m3] | mass density, 298.14 K [kg/m3] | mass density, 303.14 K [kg/m3] | mass density, 308.14 K [kg/m3] | mass density, 313.14 K [kg/m3] | mass density, 318.14 K [kg/m3] | mass density, 323.15 K [kg/m3] | refractive index, 288.15 K
[3] | 939.9 | 933.4 | 926.8 | 920.2 | 913.5 | 906.7 | 899.9 | 893 | –
[4] | – | – | – | – | – | – | – | – | 1.365

CCOC(C)=O [ethyl acetate] + CCCC(=O)[O-].C[NH2+]CCO
x1 = 1
Conditions | mass density, 303.15 K [kg/m3] | mass density, 308.15 K [kg/m3] | mass density, 313.15 K [kg/m3] | mass density, 318.16 K [kg/m3] | mass density, 323.15 K [kg/m3] | refractive index, 303.15 K
[3] | 888.76 | 882.58 | 876.34 | 870.06 | 863.73 | –
[4] | – | – | – | – | – | 1.3672

CCCC(=O)[O-].C[NH2+]CCO [N-methyl-2-hydroxyethylammonium butanoate]
Conditions | mass density, [1] [kg/m3] | refractive index, [2]
288.15 K | 1046 | 1.4579
293.15 K | 1042.6 | –
298.15 K | 1039.2 | –
303.15 K | 1035.9 | 1.4534
308.15 K | 1032.5 | –
313.15 K | – | 1.4504
313.16 K | 1029.1 | –
318.16 K | 1025.7 | –
323.16 K | 1022.3 | –

CCCOC(C)=O [propyl ethanoate] + CCCC(=O)[O-].C[NH2+]CCO
x1 = 1
Conditions | mass density, 308.14 K [kg/m3] | mass density, 313.15 K [kg/m3] | mass density, 318.15 K [kg/m3] | mass density, 323.15 K [kg/m3] | refractive index, 313.15 K
[3] | 871.38 | 865.7 | 860 | 854.26 | –
[4] | – | – | – | – | 1.3741

CCCOC(C)=O [propyl ethanoate]
Conditions | mass density, 298.15 K [kg/m3] | mass density, 308.14 K [kg/m3] | mass density, 313.15 K [kg/m3] | mass density, 318.15 K [kg/m3] | mass density, 323.15 K [kg/m3] | refractive index, 313.15 K | vapor or sublimation pressure, 374 K [kPa]
[1] | 882.61 | 871.38 | 865.7 | 860 | 854.26 | – | 101.3
[2] | – | – | – | – | – | 1.3741 | –

CCCC(=O)[O-].C[NH2+]CCO [N-methyl-2-hydroxyethylammonium butanoate] + CCCOC(C)=O
Conditions | mass density, [3] [kg/m3] | refractive index, [4]
308.15 K, x2 = 0 | 1032.53 | –
308.15 K, x2 = 0.0785 | 1016.82 | –
308.15 K, x2 = 0.4177 | 981.77 | –
308.15 K, x2 = 0.9454 | 884.44 | –
308.16 K, x2 = 0.1247 | 1013.03 | –
308.16 K, x2 = 0.207 | 1003.47 | –
308.16 K, x2 = 0.3035 | 993.9 | –
308.16 K, x2 = 0.5088 | 968.89 | –
308.16 K, x2 = 0.6042 | 952.99 | –
308.16 K, x2 = 0.696 | 936.16 | –
308.16 K, x2 = 0.7939 | 917.53 | –
308.16 K, x2 = 0.8936 | 896.61 | –
313.15 K, x2 = 0 | – | 1.4504
313.15 K, x2 = 0.0785 | 1013.32 | 1.4483
313.15 K, x2 = 0.1247 | – | 1.4457
313.15 K, x2 = 0.207 | – | 1.4417
313.15 K, x2 = 0.3035 | 989.89 | 1.4365
313.15 K, x2 = 0.4177 | 977.59 | 1.4288
313.15 K, x2 = 0.5088 | – | 1.4222
313.15 K, x2 = 0.6042 | – | 1.4146
313.15 K, x2 = 0.696 | 931.3 | 1.4068
313.15 K, x2 = 0.7939 | – | 1.3991
313.15 K, x2 = 0.8936 | – | 1.387
313.15 K, x2 = 0.9454 | – | 1.3809
313.16 K, x2 = 0 | 1029.14 | –
313.16 K, x2 = 0.1247 | 1009.37 | –
313.16 K, x2 = 0.207 | 999.76 | –
313.16 K, x2 = 0.5088 | 964.73 | –
313.16 K, x2 = 0.6042 | 948.38 | –
313.16 K, x2 = 0.7939 | 912.41 | –
313.16 K, x2 = 0.8936 | 891 | –
313.16 K, x2 = 0.9454 | 878.87 | –
318.15 K, x2 = 0.0785 | 1009.82 | –
318.15 K, x2 = 0.207 | 996.08 | –
318.15 K, x2 = 0.4177 | 973.39 | –
318.15 K, x2 = 0.696 | 926.41 | –
318.15 K, x2 = 0.7939 | 907.24 | –
318.16 K, x2 = 0 | 1025.72 | –
318.16 K, x2 = 0.1247 | 1005.67 | –
318.16 K, x2 = 0.3035 | 985.85 | –
318.16 K, x2 = 0.5088 | 960.4 | –
318.16 K, x2 = 0.6042 | 943.75 | –
318.16 K, x2 = 0.8936 | 885.74 | –
318.16 K, x2 = 0.9454 | 873.25 | –
323.15 K, x2 = 0.1247 | 1001.94 | –
323.15 K, x2 = 0.207 | 992.3 | –
323.15 K, x2 = 0.5088 | 956.04 | –
323.15 K, x2 = 0.6042 | 939.06 | –
323.15 K, x2 = 0.696 | 921.47 | –
323.16 K, x2 = 0 | 1022.26 | –
323.16 K, x2 = 0.0785 | 1006.34 | –
323.16 K, x2 = 0.3035 | 981.79 | –
323.16 K, x2 = 0.4177 | 969.14 | –
323.16 K, x2 = 0.7939 | 901.89 | –
323.16 K, x2 = 0.8936 | 880 | –
323.16 K, x2 = 0.9454 | 867.59 | –

COC(C)=O [methyl ethanoate]
Conditions | mass density, 288.15 K [kg/m3] | mass density, 293.14 K [kg/m3] | mass density, 298.14 K [kg/m3] | mass density, 303.14 K [kg/m3] | mass density, 308.14 K [kg/m3] | mass density, 313.14 K [kg/m3] | mass density, 318.14 K [kg/m3] | mass density, 323.15 K [kg/m3] | refractive index, 288.15 K | vapor or sublimation pressure, 330.1 K [kPa]
[1] | 939.9 | 933.4 | 926.8 | 920.2 | 913.5 | 906.7 | 899.9 | 893 | – | 101.3
[2] | – | – | – | – | – | – | – | – | 1.365 | –

Reference: the NIST ThermoML archive (doi:10.1016/j.jct.2013.02.022)
